Measurements taken from ChEMBL document CHEMBL1926608, “Design, synthesis and in vitro antitumour activity of new heteroaryl ethylenes” (2012).

Columns and labels:
Type in all cases: functional
A549 [1] = assay: Growth inhibition of human A549 cells after 72 hrs by MTT assay; conditions: A549, 72 h
A549 [2] = assay: Cytotoxicity against human A549 cells after 72 hrs by MTT assay; conditions: A549, 72 h, read-out: pLC50 (the source's name) (converted)
NCI-H226 [3] = assay: Growth inhibition of human NCI-H226 cells after 72 hrs by MTT assay; conditions: NCI-H226, 72 h
NCI-H226 [4] = assay: Cytotoxicity against human NCI-H226 cells after 72 hrs by MTT assay; conditions: NCI-H226, 72 h

| Compound | GI50 (A549 [1]) [µM] | CC50 (A549 [2]) [µM] | GI50 (NCI-H226 [3]) [µM] | LC50 (NCI-H226 [4]) [µM] |
| --- | --- | --- | --- | --- |
| CN(C)c1ccc(/C=C/c2ccc3ccccc3[n+]2C)cc1 | 1.55 | 70.8 | 0.631 |  |
| CN(C)c1ccc(/C=C/c2cc[n+](C)cc2)cc1 | 1.58 |  | 10 |  |
| C[n+]1c(/C=C/c2ccc(-c3ccccc3)s2)ccc2ccccc21 | 2 |  | 1.45 | 38 |
| CCCCN(CCCC)c1ccc(-c2ccc(/C=C/c3ccc4ccccc4[n+]3C)s2)s1 | 0.01 |  | 0.0457 | 10 |
| C[n+]1c(/C=C/c2ccc(N(c3ccccc3)c3ccccc3)cc2)cccc1/C=C/c1ccc(N(c2ccccc2)c2ccccc2)cc1 | 3.16 | 39.8 | 2 | 33.1 |
| CCCCN(CCCC)c1ccc(-c2ccc(/C=C/c3cccc(/C=C/c4ccc(-c5ccc(N(CCCC)CCCC)s5)s4)[n+]3C)s2)s1 | 4.79 |  | 1 |  |
| CN(C)c1ccc(/C=C(\C#N)c2cccc[n+]2C)cc1 | 3.8 |  | 19.5 |  |
| Cn1cccc1/C=C/c1cccc[n+]1C | 22.9 |  | 100 |  |
| Cn1cccc1/C=C/c1cc[n+](C)cc1 | 1.66 |  | 100 |  |
| CN(C)c1ccc(/C=C/c2cccc(/C=C/c3ccc(N(C)C)cc3)[n+]2C)cc1 | 0.372 | 13.2 | 0.0447 | 13.8 |
